In patent US10308615B2, “Heterocyclic compounds as inhibitors of Vanin-1 enzyme” (Pfizer Inc., priority 2015, dated 2019):

Experiments:
Type in all cases: biochemical
human vanin-1 [1] = target: T1, human vanin-1 (Homo sapiens (Human), UniProt O95497); test: Human Vanin-1 Enzyme Assay 3; conditions: 2 nM human vanin-1, 10 uM substrate, 15 min
In short: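 His/FLAG-tagged extracellular domain of human vanin-1 from CHO cells, used at 2 nM final, with 10 uM pantetheine-AFC substrate. Buffer: 50 mM Tris-HCl pH 8.0, 50 mM KCl, 0.005% Brij-35, 1.5 mM cysteamine, 1% DMSO. 15 min at room temperature; fluorescence read at 405/505 nm across an 11-point 2-fold dilution series.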

human vanin-1 [2] = target: T1, human vanin-1; test: Human Vanin-1 Enzyme Assay 2; conditions: 1 nM human vanin-1, 10 uM substrate, 45 min
Procedure: Human Vanin-1 Enzyme Assay 2.
The in vitro assay measures enzymatic cleavage of the fluorescently-labeled vanin substrate, pantetheine 7-amino-4-trifluoromethylcoumarin, by human vanin-1.
The vanin-1 protein was prepared in-house from a construct expressing the extracellular domain of human vanin-1 (GenBank ID NM_004666) preceded N-terminally by the honey bee melittin signal peptide, a GSG linker sequence, a His6X tag and a FLAG tag. The secreted, soluble enzyme was purified from the conditioned medium from a CHO cell line stably expressing the resulting protein. Enzyme purification was performed through sequential Ni NTA and size-exclusion chromatography steps.
On the day of the assay, dose response plates were prepared by diluting the inhibitors in DMSO at compound concentration 100-fold the final in-assay concentration. Concentration series were prepared by serially diluting in DMSO in a half-log series for a total of 11 data points. Intermediate compound plates containing compound in 10% DMSO were then created by diluting the compounds 10-fold in assay buffer consisting of 50 mM Tris-HCl pH=8.0, 50 mM KCl, 0.005% Brij-35 and 1.5 mM cysteamine. To begin the assay 3 μL were transferred from the intermediate compound plate to the assay plate.
A working solution of human vanin-1 was prepared by diluting the enzyme stock to 1.25 nM in assay buffer. Next, 24 μL of the vanin-1 working solution were transferred to the assay plate. The enzyme reaction was then initiated by the addition of 3 μL of 100 μM pantetheine 7-amino-4-trifluoromethylcoumarin prepared in assay buffer. The final concentrations in the assay were 1 nM human vanin-1 and 10 uM substrate. The final concentration of DMSO was 1%. The assay plates were incubated for 45 minutes and before they were read on a Spectramax M5 using a 405 nm excitation wavelength and a 505 nm emission wavelength for detection.

human vanin-1 [3] = target: T1, human vanin-1; test: Human Vanin-1 Enzyme Assay 1; conditions: 25 pM human vanin-1, 50 uM pantetheine 7-amino-4-trifluoromethylcoumarin, 30 min preincubation, 60 min
In short: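 Purified His6/FLAG-tagged extracellular domain of human vanin-1, secreted from CHO cells, at 25 pM final in 50 mM Tris-HCl pH 8.0, 50 mM KCl, 0.005% Brij-35, 1.6 mM cysteamine, 0.5% DMSO. Inhibitor preincubated 30 min at room temperature; 50 uM pantetheine-AFC substrate, 60 min, fluorescence at 405/510 nm; 11-point four-fold dilution series.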

T1 sequence (O95497 22-491): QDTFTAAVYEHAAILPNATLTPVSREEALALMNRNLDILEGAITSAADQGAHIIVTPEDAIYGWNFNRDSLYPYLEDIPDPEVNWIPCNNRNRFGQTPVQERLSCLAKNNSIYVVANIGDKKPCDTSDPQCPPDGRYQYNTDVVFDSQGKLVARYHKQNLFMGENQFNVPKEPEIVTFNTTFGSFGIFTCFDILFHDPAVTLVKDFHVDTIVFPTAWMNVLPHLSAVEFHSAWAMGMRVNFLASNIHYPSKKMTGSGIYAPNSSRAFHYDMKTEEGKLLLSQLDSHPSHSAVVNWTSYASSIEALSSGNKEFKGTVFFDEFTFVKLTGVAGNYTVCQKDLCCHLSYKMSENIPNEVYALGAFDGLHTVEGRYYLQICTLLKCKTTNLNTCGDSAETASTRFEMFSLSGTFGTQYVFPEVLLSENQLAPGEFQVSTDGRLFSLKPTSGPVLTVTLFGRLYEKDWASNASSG

SMILES	IC50 (human vanin-1 [1]) [nM]	IC50 (human vanin-1 [2]) [nM]	IC50 (human vanin-1 [3]) [nM]
CC(C)(Nc1ncc(C(=O)c2cccc(C#N)c2)cn1)c1ccccc1 [Example 3, 3-({2-[(2-phenylpropan-2-yl)amino]pyrimidin-5-yl}carbonyl)benzonitrile]	75	15.3	13.6
O=C(c1cnc(NCc2cnccn2)nc1)c1cccc(C(F)(F)F)c1 [Example 11, {2-[(pyrazin-2-ylmethyl)amino]pyrimidin-5-yl}[3-(trifluoromethyl)phenyl]methanone]	< 6.2	9	6.4
O=C(c1cnc(NCc2cccnc2)nc1)c1cccc(C(F)(F)F)c1 [Example 12, {2-[(pyridin-3-ylmethyl)amino]pyrimidin-5-yl}[3-(trifluoromethyl)phenyl]methanone]	0.5	2.9	1.9
CS(=O)(=O)c1cccc(C(=O)c2cnc(NCc3cccnc3)nc2)c1 [Example 13, [3-(methylsulfonyl)phenyl]{2-[(pyridin-3-ylmethyl)amino]pyrimidin-5-yl}methanone]	> 26.1	2	–
O=C(c1cnc(NCc2cccnc2)nc1)c1ccccc1F [Example 15, (2-fluorophenyl){2-[(pyridin-3-ylmethyl)amino]pyrimidin-5-yl}methanone]	170	92.4	329
O=C(c1cnc(NCc2ccccc2)nc1)c1cccc(Cl)c1 [Example 24, [2-(benzylamino)pyrimidin-5-yl](3-chlorophenyl) methanone]	274	317	1240
CC(C)(Nc1ncc(C(=O)c2cccc(Cl)c2)cn1)c1ccccc1 [Example 25, (3-chlorophenyl){2-[(2-phenylpropan-2-yl)amino]pyrimidin-5-yl}methanone]	11.5	64.5	74.1
N#Cc1cccc(C(=O)c2cnc(NCc3ccccc3)nc2)c1 [Example 27, 3-{[2-(benzylamino)pyrimidin-5-yl]carbonyl} benzonitrile]	52.2	40.4	79.7
N#Cc1cccc(C(=O)c2cnc(NCc3ccc(Cl)cc3)nc2)c1 [Example 28, 3-({2-[(4-chlorobenzyl)amino]pyrimidin-5-yl}carbonyl) benzonitrile]	8.4	21.8	38.2
COc1cccc(C(=O)c2cnc(NCc3ccc(F)cc3)nc2)c1 [Example 37, {2-[(4-fluorobenzyl)amino]pyrimidin-5-yl}(3-methoxyphenyl) methanone]	77.2	226	–
O=C(c1cnc(NCc2cccnn2)nc1)c1cccc(C(F)(F)F)c1 [Example 67, {2-[(pyridazin-3-ylmethyl)amino]pyrimidin-5-yl}[3-(trifluoromethyl)phenyl]methanone]	81.6	47.9	–
Cn1cc(C(=O)c2cnc(NCc3cccnc3)nc2)cn1 [Example 103, (1-methyl-1H-pyrazol-4-yl){2-[(pyridin-3-ylmethyl)amino]pyrimidin-5-yl}methanone]	381	563	–
COc1ccc(C(=O)c2cnc(NC(C)c3cncnc3)nc2)cc1 (centres unmarked) [Example 138, (4-methoxyphenyl) (2-{[1-(pyrimidin-5-yl)ethyl]amino}pyrimidin-5-yl)methanone]	–	437	194
N#Cc1cccc(C(=O)c2ccc(NCc3cncnc3)nc2)c1 [Example 140, 3-({6-[(pyrimidin-5-ylmethyl)amino]pyridin-3-yl}carbonyl) benzonitrile]	–	64.4	144
COc1cccc(C(=O)c2cnc(NC(C)c3cncnc3)nc2)c1 (centres unmarked) [Example 142, (3-methoxyphenyl) (2-{[1-(pyrimidin-5-yl)ethyl]amino}pyrimidin-5-yl)methanone]	–	34.3	17.1
CC(Nc1ccc(C(=O)c2cccc(C#N)c2)cn1)c1cncnc1 (centres unmarked) [Example 144, 3-[(6-{[1-(pyrimidin-5-yl)ethyl]amino}pyridin-3-yl)carbonyl] benzonitrile]	–	19.8	12.5
COc1cccc(C(=O)c2cnc(NCc3ccc(N4CCN(C)CC4)cc3)nc2)c1 [Example 154, (3-methoxyphenyl) (2-{[4-(4-methylpiperazin-1-yl)benzyl]amino}pyrimidin-5-yl)methanone]	3790	6410	–
COc1ccc(C(=O)c2cnc(NC(C)c3ccc(C(N)=O)cc3)nc2)cc1 (centres unmarked) [Example 160, 4-(1-{[5-(4-methoxybenzoyl)pyrimidin-2-yl]amino}ethyl) benzamide]	–	7150	3440
N#Cc1cccc(C(=O)c2cnc(NCC3CCOCC3)nc2)c1 [Example 163, 3-({2-[(tetrahydro-2H-pyran-4-ylmethyl)amino]pyrimidin-5-yl}carbonyl) benzonitrile]	–	2230	2880
CN1CCC(CNc2ncc(C(=O)c3cccc(C#N)c3)cn2)CC1 [Example 164, 3-[(2-{[(1-methylpiperidin-4-yl)methyl]amino}pyrimidin-5-yl)carbonyl] benzonitrile]	–	8570	1810

Continued, values first:

IC50 (human vanin-1 [1]) [nM]	IC50 (human vanin-1 [2]) [nM]	IC50 (human vanin-1 [3]) [nM]	SMILES
< 13	31.5	47.8	Cc1cccc(C(=O)c2cnc(NCc3cccnc3)nc2)c1 [Example 14, (3-methylphenyl){2-[(pyridin-3-ylmethyl)amino]pyrimidin-5-yl}methanone]
160	98.7	178	Cc1cccc(C(=O)c2cnc(NCc3ccc(C(N)=O)cc3)nc2)c1 [Example 23, 4-({[5-(3-methylbenzoyl)pyrimidin-2-yl]amino}methyl) benzamide]
6.1	11.3	–	O=C(c1cnc(NCc2cncnc2)nc1)c1cccc(C(F)(F)F)c1 [Example 119, {2-[(pyrimidin-5-ylmethyl)amino]pyrimidin-5-yl}[3-(trifluoromethyl)phenyl]methanone]
> 1250	21.9	–	CS(=O)(=O)c1cccc(C(=O)c2cnc(NCc3ccc(C(N)=O)cc3)nc2)c1 [Example 125, 4-[({5-[3-(methylsulfonyl)benzoyl]pyrimidin-2-yl}amino)methyl] benzamide]
–	137	187	NC(=O)c1cccc(C(=O)c2cnc(NCc3cncnc3)nc2)c1 [Example 136, 3-({2-[(pyrimidin-5-ylmethyl)amino]pyrimidin-5-yl}carbonyl) benzamide]
–	1010	501	Cn1ncc2ccc(C(=O)c3cnc(NCc4cncnc4)nc3)cc21 [Example 137, (1-methyl-1H-indazol-6-yl){2-[(pyrimidin-5-ylmethyl)amino]pyrimidin-5-yl}methanone]
–	110	81.5	COc1cccc(C(=O)c2cnc(NCc3cncnc3)nc2)c1 [Example 143, (3-methoxyphenyl) {2-[(pyrimidin-5-ylmethyl)amino]pyrimidin-5-yl}methanone]
–	486	329	O=C(c1cnc(NCc2cncnc2)nc1)c1ccc2c(c1)OCCO2 [Example 145, 2,3-dihydro-1,4-benzodioxin-6-yl{2-[(pyrimidin-5-ylmethyl)amino]pyrimidin-5-yl}methanone]
–	3080	2750	Cn1ncc2cc(C(=O)c3cnc(NCc4cncnc4)nc3)ccc21 [Example 159, (1-methyl-1H-indazol-5-yl){2-[(pyrimidin-5-ylmethyl)amino]pyrimidin-5-yl}methanone]
